According to patent US20190110473A1, “SYNERGISTIC WEED CONTROL FROM APPLICATIONS OF PYRIDINE CARBOXYLIC ACID HERBICIDES AND PHOTOSYSTEM II INHIBITORS” (Dow AgroSciences LLC, priority 2017, published 2019):

Experiments:
Assay in all cases: Greenhouse herbicidal activity, visual weed control
Type in all cases: in vivo
Conditions in all cases: 20-22 d
[1] = test system: Canada thistle (Cirsium arvense; CIRAR)
Protocol: (§1) Seeds of the desired test plant species were planted in Sun Gro MetroMix® 306 planting mixture, which typically has a pH of 6.0 to 6.8 and an organic matter content of about 30 percent, in plastic pots with a surface area of 103.2 square centimeters (cm^2). When required to ensure good germination and healthy plants, a fungicide treatment and/or other chemical or physical treatment was applied. The plants were grown for 7-36 days (d) in a greenhouse with an approximate 14 hour (h) photoperiod which was maintained at about 18° C. during the day and 17° C. during the night. Nutrients and water were added on a regular basis and supplemental lighting was provided with overhead metal halide 1000-Watt lamps as necessary. The plants were employed for testing when they reached the second or third true leaf stage.
(§2) An aliquot of formulated Compound 1 (100 grams acid equivalent per liter (g ae/L); emusifiable concentrate (EC)) was placed in a 25 mL glass vial and diluted in a volume of 1.25% (volume per volume (v/v)) aqueous methylated soybean seed oil to obtain a stock solution. The concentrated stock solutions were diluted with an aqueous mixture of 1.25% v/v of aqueous methylated soybean seed oil to provide the appropriate application rates. Compound requirements are based upon a 12 mL application volume at a rate of 187 liters per hectare (L/ha). Compositions of Compound 1 and the photosystem II inhibitor herbicides (propanil, amicarbazone, pyridafol, desmedipham, terbacil, or bromacil) were prepared by adding aliquot or weighted amount of the photosystem II inhibitor into the diluted solutions of Compound 1. The compositions of Compound 1 and the photosystem II inhibitor herbicides were applied to the plant material with an overhead Mandel track sprayer equipped with 8002E nozzles calibrated to deliver 187 L/ha over an application area of 0.503 square meters (m^2) at a spray height of 18 inches (43 centimeters (cm)) above average plant canopy. Control plants were sprayed in the same manner with the solvent blank.
(§3) The efficacy of each of these herbicidal compositions was then evaluated against rapeseed (Brassica napus; BRSNN), shepherd's purse (Capsella bursa-pastoris; CAPBP), common chickweed (Stellaria media; STEME), scentless mayweed (Matricaria inodora; MATIN), corn chamomile (Anthemis arvensis; ANTAR), wild chamomile (Matricaria chamomilla; MATCH), Persian speedwell (Veronica persica; VERPE), ivyleaf speedwell (Veronica hederifolia; VERHE), corn poppy (Papaver rhoeas; PAPRH), kochia (Kochia scoparia; KCHSC), and Canada thistle (Cirsium arvense; CIRAR). The treated plants and control plants were placed in a greenhouse as described above and watered by subirrigation to prevent washoff of the test compounds. After 20-22 d, the condition of the test plants as compared with that of the control plants was determined visually and scored on a scale of 0 to 100 percent where 0 corresponds to no injury and 100 corresponds to complete kill. […]
(§4) The values reported are means.

[2] = test system: Persian speedwell (Veronica persica; VERPE)
Protocol: as §1, §2, §3, §4

[3] = test system: common chickweed (Stellaria media; STEME)
Protocol: as §1, §2, §3, §4

[4] = test system: corn chamomile (Anthemis arvensis; ANTAR)
Protocol: as §1, §2, §3, §4

[5] = test system: corn poppy (Papaver rhoeas; PAPRH)
Protocol: as §1, §2, §3, §4

[6] = test system: ivyleaf speedwell (Veronica hederifolia; VERHE)
Protocol: as §1, §2, §3, §4

[7] = test system: kochia (Kochia scoparia; KCHSC)
Protocol: as §1, §2, §3, §4

[8] = test system: rapeseed (Brassica napus; BRSNN)
Protocol: as §1, §2, §3, §4

[9] = test system: scentless mayweed (Matricaria inodora; MATIN)
Protocol: as §1, §2, §3, §4

[10] = test system: shepherd's purse (Capsella bursa-pastoris; CAPBP)
Protocol: as §1, §2, §3, §4

[11] = test system: wild chamomile (Matricaria chamomilla; MATCH)
Protocol: as §1, §2, §3, §4

CC(C)c1nn(C(=O)NC(C)(C)C)c(=O)n1N [Amicarbazone, amicarbazone]
Obs (% visual control) ([1]; Amicarbazone 300 g/ha alone): 50%
Obs (% visual control) ([2]; Amicarbazone 300 g/ha alone): 20%
Obs (% visual control) ([3]; Amicarbazone 300 g/ha alone): 20%
Obs (% visual control) ([4]; Amicarbazone 300 g/ha alone): 30%
Obs (% visual control) ([5]; PAPRH, Amicarbazone 300 g/ha alone): 30%
Obs (% visual control) ([6]; Amicarbazone 300 g/ha alone): 50%
Obs (% visual control) ([7]; Amicarbazone 300 g/ha alone): 50%
Obs (% visual control) ([8]; Amicarbazone 300 g/ha alone): 60%
Obs (% visual control) ([9]; Amicarbazone 300 g/ha alone): 30%
Obs (% visual control) ([10]; Amicarbazone 300 g/ha alone): 50%
Obs (% visual control) ([11]; Amicarbazone 300 g/ha alone): 95%

CCC(C)n1c(=O)[nH]c(C)c(Br)c1=O (stereo not shown) [Bromacil, bromacil]
Obs (% visual control) ([1]; Bromacil 900 g/ha alone): 10%
Obs (% visual control) ([2]; Bromacil 900 g/ha alone): 10%
Obs (% visual control) ([3]; Bromacil 900 g/ha alone): 100%
Obs (% visual control) ([4]; Bromacil 900 g/ha alone): 30%
Obs (% visual control) ([5]; R-PAPRH, Bromacil 900 g/ha alone): 100%
Obs (% visual control) ([6]; Bromacil 900 g/ha alone): 30%
Obs (% visual control) ([7]; Bromacil 900 g/ha alone): 97%
Obs (% visual control) ([8]; Bromacil 900 g/ha alone): 65%
Obs (% visual control) ([9]; Bromacil 900 g/ha alone): 100%
Obs (% visual control) ([10]; Bromacil 900 g/ha alone): 65%
Obs (% visual control) ([11]; Bromacil 900 g/ha alone): 100%

Nc1c(F)c(-c2ccc3cc[nH]c3c2F)nc(C(=O)O)c1Cl [Compound 1]
Obs (% visual control) ([1]; Compound 1 5 g/ha alone): 10%
Obs (% visual control) ([1]; Compound 1 10 g/ha alone): 30%
Obs (% visual control) ([2]; Compound 1 5 g/ha alone): 70%
Obs (% visual control) ([2]; Compound 1 10 g/ha alone): 85%
Obs (% visual control) ([3]; Compound 1 5 g/ha alone): 65%
Obs (% visual control) ([3]; Compound 1 10 g/ha alone): 70%
Obs (% visual control) ([4]; Compound 1 5 g/ha alone): 10%
Obs (% visual control) ([4]; Compound 1 10 g/ha alone): 40%
Obs (% visual control) ([5]; PAPRH (R-PAPRH in Tables 1 and 6), Compound 1 5 g/ha alone): 75%
Obs (% visual control) ([5]; PAPRH (R-PAPRH in Tables 1 and 6), Compound 1 10 g/ha alone): 80%
Obs (% visual control) ([6]; Compound 1 5 g/ha alone): 75%
Obs (% visual control) ([6]; Compound 1 10 g/ha alone): 75%
Obs (% visual control) ([7]; Compound 1 5 g/ha alone): 50%
Obs (% visual control) ([7]; Compound 1 10 g/ha alone): 55%
Obs (% visual control) ([8]; Compound 1 5 g/ha alone): 40%
Obs (% visual control) ([8]; Compound 1 10 g/ha alone): 50%
Obs (% visual control) ([9]; Compound 1 5 g/ha alone): 10%
Obs (% visual control) ([9]; Compound 1 10 g/ha alone): 60%
Obs (% visual control) ([10]; Compound 1 5 g/ha alone): 65%
Obs (% visual control) ([10]; Compound 1 10 g/ha alone): 70%
Obs (% visual control) ([11]; Compound 1 5 g/ha alone): 10%
Obs (% visual control) ([11]; Compound 1 10 g/ha alone): 10%

CCOC(=O)Nc1cccc(OC(=O)Nc2ccccc2)c1 [Desmedipham, desmedipham]
Obs (% visual control) ([1]; Desmedipham 163 g/ha alone): 0%
Obs (% visual control) ([2]; Desmedipham 163 g/ha alone): 10%
Obs (% visual control) ([3]; Desmedipham 163 g/ha alone): 0%
Obs (% visual control) ([4]; Desmedipham 163 g/ha alone): 10%
Obs (% visual control) ([5]; PAPRH, Desmedipham 163 g/ha alone): 0%
Obs (% visual control) ([6]; Desmedipham 163 g/ha alone): 10%
Obs (% visual control) ([7]; Desmedipham 163 g/ha alone): 0%
Obs (% visual control) ([8]; Desmedipham 163 g/ha alone): 15%
Obs (% visual control) ([9]; Desmedipham 163 g/ha alone): 10%
Obs (% visual control) ([10]; Desmedipham 163 g/ha alone): 0%
Obs (% visual control) ([11]; Desmedipham 163 g/ha alone): 10%

CCC(=O)Nc1ccc(Cl)c(Cl)c1 [Propanil, propanil]
Obs (% visual control) ([1]; Propanil 840 g/ha alone): 10%
Obs (% visual control) ([2]; Propanil 840 g/ha alone): 10%
Obs (% visual control) ([3]; Propanil 840 g/ha alone): 0%
Obs (% visual control) ([4]; Propanil 840 g/ha alone): 50%
Obs (% visual control) ([5]; R-PAPRH, Propanil 840 g/ha alone): 20%
Obs (% visual control) ([6]; Propanil 840 g/ha alone): 10%
Obs (% visual control) ([7]; Propanil 840 g/ha alone): 10%
Obs (% visual control) ([8]; Propanil 840 g/ha alone): 10%
Obs (% visual control) ([9]; Propanil 840 g/ha alone): 0%
Obs (% visual control) ([10]; Propanil 840 g/ha alone): 50%
Obs (% visual control) ([11]; Propanil 840 g/ha alone): 10%

O=c1cc(Cl)[nH]nc1-c1ccccc1 [Pyridafol, pyridafol]
Obs (% visual control) ([1]; Pyridafol 195 g/ha alone): 0%
Obs (% visual control) ([2]; Pyridafol 195 g/ha alone): 0%
Obs (% visual control) ([3]; Pyridafol 195 g/ha alone): 0%
Obs (% visual control) ([4]; Pyridafol 195 g/ha alone): 0%
Obs (% visual control) ([5]; PAPRH, Pyridafol 195 g/ha alone): 0%
Obs (% visual control) ([6]; Pyridafol 195 g/ha alone): 0%
Obs (% visual control) ([7]; Pyridafol 195 g/ha alone): 0%
Obs (% visual control) ([8]; Pyridafol 195 g/ha alone): 5%
Obs (% visual control) ([9]; Pyridafol 195 g/ha alone): 10%
Obs (% visual control) ([10]; Pyridafol 195 g/ha alone): 0%
Obs (% visual control) ([11]; Pyridafol 195 g/ha alone): 0%

Cc1[nH]c(=O)n(C(C)(C)C)c(=O)c1Cl [Terbacil, terbacil]
Obs (% visual control) ([1]; Terbacil 113 g/ha alone): 30%
Obs (% visual control) ([2]; Terbacil 113 g/ha alone): 30%
Obs (% visual control) ([3]; Terbacil 113 g/ha alone): 10%
Obs (% visual control) ([4]; Terbacil 113 g/ha alone): 0%
Obs (% visual control) ([5]; PAPRH, Terbacil 113 g/ha alone): 10%
Obs (% visual control) ([6]; Terbacil 113 g/ha alone): 60%
Obs (% visual control) ([7]; Terbacil 113 g/ha alone): 0%
Obs (% visual control) ([8]; Terbacil 113 g/ha alone): 10%
Obs (% visual control) ([9]; Terbacil 113 g/ha alone): 10%
Obs (% visual control) ([10]; Terbacil 113 g/ha alone): 30%
Obs (% visual control) ([11]; Terbacil 113 g/ha alone): 60%
